Test results taken from US20240132431A1, “METHOD FOR ALKYLATING ACIDIC FUNCTIONAL GROUP” (Chugai Seiyaku Kabushiki Kaisha, priority 2021, published 2024).
Values belong to the compound of their own block, whether it stands above or below them.

Target: T1, Bcl-2 protein (Recombinant Human Bcl-2 Protein) (Homo sapiens, UniProt P10415)
T1 construct: purchased Novus NBP2-34889
Test: Binding evaluation of mixture library compounds to Bcl-2 using AS-MS (affinity selection mass spectrometry)
Details: for ASMS ratio (%) n = 1 / ASMS ratio (%) n = 2: ASMS Ratio(%)=(A−C)/B×100; for ASMS ratio (%) n = 1: replicate n = 1; for ASMS ratio (%) n = 2: replicate n = 2
Procedure, shortened: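 Affinity selection MS: Bcl-2 20 μM + 1200-cpd mixture, […]/cpd, Tris pH 7.4 buffer w/ Tween-20, DTT; 1 h 23° C dark; P-2 spin SEC; MeCN/MeOH extraction; RP LC/MS. ASMS Ratio(%) = (A−C)/B×100.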

[1] = AS-MS on the mixture of 1200 library compounds
[2] = AS-MS, mixture of 1200 compounds, Bcl-2

T1 sequence (P10415 whole entry): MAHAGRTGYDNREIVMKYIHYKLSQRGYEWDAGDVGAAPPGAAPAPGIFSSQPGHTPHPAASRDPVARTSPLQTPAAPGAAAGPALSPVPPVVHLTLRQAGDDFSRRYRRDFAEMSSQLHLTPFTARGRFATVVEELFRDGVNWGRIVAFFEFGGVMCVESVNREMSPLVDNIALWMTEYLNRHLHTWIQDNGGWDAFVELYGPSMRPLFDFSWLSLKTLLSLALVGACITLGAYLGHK

Compound: 4-[4-[[3-Ethoxy-5-(3-ethoxyphenyl)phenyl]methyl]piperazin-1-yl]-N-propylbenzamide [B1M009-01]
- ASMS ratio (%) n = 2 [2]: 0.0%

Compound: CCOc1cccc(C#Cc2cc(C(=O)N3CCN(c4ccc(C(=O)NCC56CC7CC(CC(C7)C5)C6)cc4)CC3)cc(C(F)(F)F)c2)c1 [B1A041-01, N-(1-Adamantylmethyl)-4-[4-[3-[2-(3-ethoxyphenyl)ethynyl]-5-(trifluoromethyl)benzoyl]piperazin-1-yl]benzamide]
- ASMS ratio (%) n = 1 [2]: −2.4%
- ASMS ratio (%) n = 2 [2]: −4.0%

Compound: CCOc1cncc(-c2cc(C(=O)N3CCN(c4ccc(C(=O)NS(=O)(=O)CC56CC7CC(CC(C7)C5)C6)cc4)CC3)cc(C(C)(C)C)c2)c1 [B2A038-01, N-(1-Adamantylmethylsulfonyl)-4-[4-[3-tert-butyl-5-(5-ethoxypyridin-3-yl)benzoyl]piperazin-1-yl]benzamide]
- ASMS ratio (%) n = 1 (AS-MS, mixture library, Bcl-2): 1.8%
- ASMS ratio (%) n = 2 (AS-MS, mixture library, Bcl-2): −3.5%

Compound: CCOc1cccc(-c2csc(CN3CCN(c4ccc(C(=O)NCC(F)(F)F)nn4)CC3)c2)c1 [B1K093-01, 6-[4-[[4-(3-Ethoxyphenyl)thiophen-2-yl]methyl]piperazin-1-yl]-N-(2,2,2-trifluoroethyl)pyridazine-3-carboxamide]
- ASMS ratio (%) n = 1 [2]: 2.7%
- ASMS ratio (%) n = 2 [2]: −0.4%

Compound: CCOc1cncc(-c2ccc(C(=O)N3CCN(c4ccc(C(=O)Nc5ccc(OC)cc5)cc4)CC3)cc2C)c1 [B1O026-01, 4-[4-[4-(5-Ethoxypyridin-3-yl)-3-methylbenzoyl]piperazin-1-yl]-N-(4-methoxyphenyl)benzamide]
- ASMS ratio (%) n = 1 [1]: 1.7%
- ASMS ratio (%) n = 2 [1]: −1.5%

Compound: CCOc1cccc(-c2ccccc2CCC(=O)N2CCN(c3ccc(C(=O)NS(=O)(=O)CC45CC6CC(CC(C6)C4)C5)nn3)CC2)c1 [B2A011-01, N-(1-Adamantylmethylsulfonyl)-6-[4-[3-[2-(3-ethoxyphenyl)phenyl]propanoyl]piperazin-1-yl]pyridazine-3-carboxamide]
- ASMS ratio (%) n = 1 (AS-MS, mixture library, Bcl-2): 9.0%
- ASMS ratio (%) n = 2 (AS-MS, mixture library, Bcl-2): 0.3%

Compound: CCOc1cncc(-c2cc(CN3CCN(c4ccc(C(=O)NCC(F)(F)F)nn4)CC3)cc(OC(C)C)c2)c1 [B1K084-01, 6-[4-[[3-(5-Ethoxypyridin-3-yl)-5-propan-2-yloxyphenyl]methyl]piperazin-1-yl]-N-(2,2,2-trifluoroethyl)pyridazine-3-carboxamide]
- ASMS ratio (%) n = 1 [2]: 0.0%
- ASMS ratio (%) n = 2 [2]: 0.0%

Compound: CCOc1cncc(-c2ccc(C(=O)N3CCN(c4ccc(C(=O)NCC(F)(F)F)nn4)CC3)cc2F)c1 [B1K006-01, 6-[4-[4-(5-Ethoxypyridin-3-yl)-3-fluorobenzoyl]piperazin-1-yl]-N-(2,2,2-trifluoroethyl)pyridazine-3-carboxamide]
- ASMS ratio (%) n = 1 [2]: −0.6%
- ASMS ratio (%) n = 2 [2]: 0.0%

Compound: CCOc1cncc(-c2ccccc2CN2CCN(c3ccc(C(=O)NCC45CC6CC(CC(C6)C4)C5)nn3)CC2)c1 [B1A072-01, N-(1-Adamantylmethyl)-6-[4-[[2-(5-ethoxypyridin-3-yl)phenyl]methyl]piperazin-1-yl]pyridazine-3-carboxamide]
- ASMS ratio (%) n = 1 [2]: 3.9%
- ASMS ratio (%) n = 2 [2]: −0.2%

Compound: CCOc1cncc(-c2cc(C(=O)N3CCN(c4ccc(C(=O)N(CC)CC)cc4)CC3)cc(C(F)(F)F)c2)c1 [B4J040-01, 4-[4-[3-(5-Ethoxypyridin-3-yl)-5-(trifluoromethyl)benzoyl]piperazin-1-yl]-N,N-diethylbenzamide]
- ASMS ratio (%) n = 1 [1]: −0.5%
- ASMS ratio (%) n = 2 [1]: −1.2%

Compound: CCOc1cccc(-c2csc(CN3CCN(c4ccc(C(=O)NS(=O)(=O)CC56CC7CC(CC(C7)C5)C6)nn4)CC3)c2)c1 [B2A093-01, N-(1-Adamantylmethylsulfonyl)-6-[4-[[4-(3-ethoxyphenyl)thiophen-2-yl]methyl]piperazin-1-yl]pyridazine-3-carboxamide]
- ASMS ratio (%) n = 1 (AS-MS, mixture library, Bcl-2): 13.0%
- ASMS ratio (%) n = 2 (AS-MS, mixture library, Bcl-2): 0.0%

Compound: CCOc1cccc(-c2cc(CN3CCN(c4ccc(C(=O)NCC(F)(F)F)cc4)CC3)cc(C(F)(F)F)c2)c1 [B1K061-01, 4-[4-[[3-(3-Ethoxyphenyl)-5-(trifluoromethyl)phenyl]methyl]piperazin-1-yl]-N-(2,2,2-trifluoroethyl)benzamide]
- ASMS ratio (%) n = 1 [2]: 2.8%
- ASMS ratio (%) n = 2 [2]: −1.3%

Next, values leading:

- ASMS ratio (%) (n = 1): 0.0%
- ASMS ratio (%) (n = 2): 0.0%
Compound: CCOc1cccc(-c2ccc(C(=O)N3CCN(c4ccc(C(=O)NS(=O)(=O)C(C)(C)C)cc4)CC3)cc2C)c1 [B2L025-01, N-tert-Butylsulfonyl-4-[4-[4-(3-ethoxyphenyl)-3-methylbenzoyl]piperazin-1-yl]benzamide]

- ASMS ratio (%) n = 1 [1]: 1.8%
- ASMS ratio (%) n = 2 [1]: −5.9%
Compound: CCOc1cccc(-c2ccc(CN3CCN(c4ccc(C(=O)N(C)CC56CC7CC(CC(C7)C5)C6)cc4)CC3)cc2C)c1 [B3A047-01, N-(1-Adamantylmethyl)-4-[4-[[4-(3-ethoxyphenyl)-3-methylphenyl]methyl]piperazin-1-yl]-N-methylbenzamide]

- ASMS ratio (%) (n = 1): 0.0%
- ASMS ratio (%) (n = 2): 0.0%
Compound: CCOc1cccc(-c2ccc(C(=O)N3CCN(c4ccc(C(=O)NS(=O)(=O)C(C)(C)C)nn4)CC3)cc2C)c1 [B2L003-01, N-tert-Butylsulfonyl-6-[4-[4-(3-ethoxyphenyl)-3-methylbenzoyl]piperazin-1-yl]pyridazine-3-carboxamide]

- ASMS ratio (%) (n = 1): 0.0%
- ASMS ratio (%) (n = 2): 1.9%
Compound: CCOc1cncc(-c2cc(CN3CCN(c4ccc(C(=O)NS(C)(=O)=O)nn4)CC3)cc(OCC)c2)c1 [B2I082-01, 6-[4-[[3-Ethoxy-5-(5-ethoxypyridin-3-yl)phenyl]methyl]piperazin-1-yl]-N-methylsulfonylpyridazine-3-carboxamide]

- ASMS ratio (%) n = 1 [1]: 6.9%
- ASMS ratio (%) n = 2 [1]: −6.3%
Compound: CCOc1cccc(-c2cc(C(=O)N3CCN(c4ccc(C(=O)N(C)CC56CC7CC(CC(C7)C5)C6)nn4)CC3)cc(C(F)(F)F)c2)c1 [B3A017-01, N-(1-Adamantylmethyl)-6-[4-[3-(3-ethoxyphenyl)-5-(trifluoromethyl)benzoyl]piperazin-1-yl]-N-methylpyridazine-3-carboxamide]

- ASMS ratio (%) n = 1 [1]: 2.0%
- ASMS ratio (%) n = 2 [1]: 3.7%
Compound: CCOc1cccc(-c2ccc(C(=O)N3CCN(c4ccc(C(=O)N(CC)CC)nn4)CC3)c3ccccc23)c1 [B4J013-01, 6-[4-[4-(3-Ethoxyphenyl)naphthalene-1-carbonyl]piperazin-1-yl]-N,N-diethylpyridazine-3-carboxamide]

- ASMS ratio (%) (n = 1): −0.3%
- ASMS ratio (%) (n = 2): 0.2%
Compound: CCOc1cccc(-c2ccccc2CN2CCN(c3ccc(C(=O)NS(C)(=O)=O)cc3)CC2)c1 [B2I045-01, 4-[4-[[2-(3-Ethoxyphenyl)phenyl]methyl]piperazin-1-yl]-N-methylsulfonylbenzamide]

- ASMS ratio (%) n = 1 (AS-MS, mixture library, Bcl-2): 10.7%
- ASMS ratio (%) n = 2 (AS-MS, mixture library, Bcl-2): 8.7%
Compound: CCOc1cncc(-c2ccc(C(=O)N3CCN(c4ccc(C(=O)NS(=O)(=O)c5ccc(NCCSc6ccccc6)c([N+](=O)[O-])c5)nn4)CC3)cc2C)c1 [B2Q004-01, 6-[4-[4-(5-Ethoxypyridin-3-yl)-3-methylbenzoyl]piperazin-1-yl]-N-[3-nitro-4-(2-phenylsulfanylethylamino)phenyl]sulfonylpyridazine-3-carboxamide]

- ASMS ratio (%) (n = 1): 0.0%
- ASMS ratio (%) (n = 2): 0.0%
Compound: CCOc1cncc(-c2cc(CN3CCN(c4ccc(C(=O)NS(=O)(=O)C(C)(C)C)cc4)CC3)cc(OC(F)(F)F)c2)c1 [B2L064-01, N-tert-Butylsulfonyl-4-[4-[[3-(5-ethoxypyridin-3-yl)-5-(trifluoromethoxy)phenyl]methyl]piperazin-1-yl]benzamide]

- ASMS ratio (%) n = 1 [1]: 4.4%
- ASMS ratio (%) n = 2 [1]: 0.6%
Compound: CCOc1cncc(-c2ccc(C(=O)N3CCN(c4ccc(C(=O)N(C)CC56CC7CC(CC(C7)C5)C6)cc4)CC3)cc2C)c1 [B3A026-01, N-(1-Adamantylmethyl)-4-[4-[4-(5-ethoxypyridin-3-yl)-3-methylbenzoyl]piperazin-1-yl]-N-methylbenzamide]

- ASMS ratio (%) n = 1 [1]: 0.0%
- ASMS ratio (%) n = 2 [1]: 0.0%
Compound: CCOc1cccc(-c2ccc(CN3CCN(c4ccc(C(=O)N(C)CC56CC7CC(CC(C7)C5)C6)cc4)CC3)c3ccccc23)c1 [B3A065-01, N-(1-Adamantylmethyl)-4-[4-[[4-(3-ethoxyphenyl)naphthalen-1-yl]methyl]piperazin-1-yl]-N-methylbenzamide]

- ASMS ratio (%) (n = 1): 0.0%
- ASMS ratio (%) (n = 2): 0.0%
Compound: CCOc1cncc(-c2cc(CN3CCN(c4ccc(C(=O)NS(C)(=O)=O)cc4)CC3)cc(OC(C)C)c2)c1 [B2I058-01, 4-[4-[[3-(5-Ethoxypyridin-3-yl)-5-propan-2-yloxyphenyl]methyl]piperazin-1-yl]-N-methylsulfonylbenzamide]

- ASMS ratio (%) n = 1 (AS-MS, mixture library, Bcl-2): 0.0%
- ASMS ratio (%) n = 2 (AS-MS, mixture library, Bcl-2): 0.0%
Compound: CCOc1cccc(-c2csc(C(=O)N3CCN(c4ccc(C(=O)NS(=O)(=O)c5ccc(NCCSc6ccccc6)c([N+](=O)[O-])c5)nn4)CC3)c2)c1 [B2Q001-01, 6-[4-[4-(3-Ethoxyphenyl)thiophene-2-carbonyl]piperazin-1-yl]-N-[3-nitro-4-(2-phenylsulfanylethylamino)phenyl]sulfonylpyridazine-3-carboxamide]

- ASMS ratio (%) (n = 1): −0.2%
- ASMS ratio (%) (n = 2): 1.0%
Compound: CCOc1cncc(-c2cc(C(=O)N3CCN(c4ccc(C(=O)NS(=O)(=O)C(C)(C)C)cc4)CC3)cc(C(F)(F)F)c2)c1 [B2L040-01, N-tert-Butylsulfonyl-4-[4-[3-(5-ethoxypyridin-3-yl)-5-(trifluoromethyl)benzoyl]piperazin-1-yl]benzamide]
